Test: recombinant barcode read abundance after kanamycin selection (control-corrected) (log10(CPM+1)); higher = more efficient recombination; sequences stand for … in AGTGCAGAGAAAATCGGCCAGTTTTCTCTGCCTGCAGTCCGCATGCCGT…AGATTTATGCAGCGGACTGCCTTTCTCCCAAAGTGATAAACCGGACAGTATCATGGACCGGTTTTCCCGGTAATCCGTATTTGCAAGGTTGGTTTCACT; site = the 11-nt target
Procedure: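 Pooled E. coli target-specificity screen for the IS621 bridge recombinase. Each library plasmid pairs an 11-nt target (CT core) with a bridge RNA whose target-binding loop (9-nt LTG + 4-nt RTG) is reprogrammed; the rest of the 177-nt WT IS621 bridge RNA scaffold is fixed. The plasmid is co-electroporated with a WT donor plasmid; recombinase is induced with 0.1 mM IPTG and recombinants are selected on kanamycin. Recombinant barcodes are sequenced, converted to CPM, averaged over two biological replicates and corrected by the unselected control CPM. Molecule = full bridge RNA written as DNA: LTG = specificity nt 1-9, RTG = reverse complement of specificity nt 8-11, in the WT scaffold.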
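Note: IS621 recombinase and bridge RNA in Escherichia coli cells.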

Sequence | recombinant barcode read abundance (log10)
AGAACTCCTTGGGTTCTAACCTGTTGCTG (site AGAACTCCTCA) | 0.323
AGAACTCCTTGGGTTCTAACCTGTTGCTG (site TCTTGCTCTAG) | 0.0485
AGAAGTCCTTGGGTTCTAACCTGTTGCGG (site AGAAGTCCTCA) | 0.0978
AGAAGTCCTTGGGTTCTAACCTGTTGCGG (site AGAAGTCCTCC) | 1.91
AGAAGTCCTTGGGTTCTAACCTGTTGCGG (site AGAAGTCCTCG) | 0.101
AGAAGTCCTTGGGTTCTAACCTGTTGCGG (site AGAAGTCCTCT) | 1.32
AGACAGACTTGGGTTCTAACCTGTTGCGT (site AGACAGACTAC) | 3.32
AGACAGACTTGGGTTCTAACCTGTTGCGT (site CAGAGCTCTCG) | 0.0309
AGACCATCTTGGGTTCTAACCTGTTGCCT (site AGACCATCTAG) | 0.751
AGACCATCTTGGGTTCTAACCTGTTGCCT (site AGATCATCTAA) | 0.162
AGACCCTCTTGGGTTCTAACCTGTTGCCT (site AGACCCTCTAG) | 2.91
AGACCCTCTTGGGTTCTAACCTGTTGCCT (site CGACCCTCTAG) | 0.728
AGACCCTCTTGGGTTCTAACCTGTTGCCT (site GGACCCTCTAG) | 0.304
AGACCCTCTTGGGTTCTAACCTGTTGCCT (site TGACCCTCTAG) | 1.3
AGACGACCTTGGGTTCTAACCTGTTGCGG (site AGACGACCTCC) | 2.95
AGACGACCTTGGGTTCTAACCTGTTGCGG (site GTCATGTCTGA) | 0.016
AGACTAACTTGGGTTCTAACCTGTTGCCT (site AAACTAACTAG) | 0.124
AGACTAACTTGGGTTCTAACCTGTTGCCT (site ACACTAACTAG) | 0.0816
AGACTAACTTGGGTTCTAACCTGTTGCCT (site AGACTAACTAG) | 1.54
AGACTAACTTGGGTTCTAACCTGTTGCCT (site ATACTAACTAG) | 0.29
AGACTCCCTTGGGTTCTAACCTGTTGCAC (site ACACGCCCTGT) | 0.0745

Sequence | recombinant barcode read abundance (log10)
AGACTCCCTTGGGTTCTAACCTGTTGCAC (site AGACTCCCTGT) | 2.08
AGACTGACTTGGGTTCTAACCTGTTGCGG (site AGACTGACTCC) | 2.18
AGACTGACTTGGGTTCTAACCTGTTGCGG (site TCCAAATCTAG) | 0.232
AGACTGGCTTGGGTTCTAACCTGTTGCCT (site AGACTGGCTAG) | 1.03
AGACTGGCTTGGGTTCTAACCTGTTGCCT (site CGACAGGCTAG) | 0.176
AGAGAGGCTTGGGTTCTAACCTGTTGCGG (site AGAGAGGCTCC) | 1.82
AGAGAGGCTTGGGTTCTAACCTGTTGCGG (site CGAGAGTCTCC) | 0.125
AGAGAGTCTTGGGTTCTAACCTGTTGCTT (site AGAGAGTCTAA) | 1.99
AGAGAGTCTTGGGTTCTAACCTGTTGCTT (site ATAGAGTCTAA) | 0.602
AGAGCGACTTGGGTTCTAACCTGTTGCCT (site AGAGAGACTAG) | 0.127
AGAGCGACTTGGGTTCTAACCTGTTGCCT (site AGAGCGACTAG) | 0.727
AGAGCGACTTGGGTTCTAACCTGTTGCCT (site AGAGGGACTAG) | 0.587
AGAGCGACTTGGGTTCTAACCTGTTGCCT (site AGAGTGACTAG) | 0.0332
AGAGCGACTTGGGTTCTAACCTGTTGCTA (site AGAGCGACTTA) | 0.654
AGAGCGACTTGGGTTCTAACCTGTTGCTA (site CTCTACCCTCT) | 0.147
AGAGCTCCTTGGGTTCTAACCTGTTGCCG (site AGAGCTCCTCG) | 1.03
AGAGCTCCTTGGGTTCTAACCTGTTGCCG (site AGATCTCCTAG) | 0.468
AGAGGAGCTTGGGTTCTAACCTGTTGCAG (site AGAGATGCTCT) | 0.115
AGAGGAGCTTGGGTTCTAACCTGTTGCAG (site AGAGGAGCTCT) | 1.79
AGAGGGACTTGGGTTCTAACCTGTTGCCT (site AGAGAGACTAG) | 1.25
AGAGGGACTTGGGTTCTAACCTGTTGCCT (site AGAGCGACTAG) | 0.0189

Sequence | recombinant barcode read abundance (log10)
AGAGGGACTTGGGTTCTAACCTGTTGCCT (site AGAGGGACTAG) | 2.34
AGAGGGACTTGGGTTCTAACCTGTTGCCT (site AGAGTGACTAG) | 0.0172
AGAGTAGCTTGGGTTCTAACCTGTTGCAC (site AGAGTAGCTGT) | 2.41
AGAGTAGCTTGGGTTCTAACCTGTTGCAC (site GTTTATACTTG) | 0.0243
AGAGTAGCTTGGGTTCTAACCTGTTGCTA (site AGAGTAGCTTA) | 1.31
AGAGTAGCTTGGGTTCTAACCTGTTGCTA (site CTCCCGACTGC) | 0.0353
AGATAGCCTTGGGTTCTAACCTGTTGCCT (site AGATAGCCTAG) | 2.01
AGATAGCCTTGGGTTCTAACCTGTTGCCT (site CGATAGCCTAG) | 0.102
AGATAGCCTTGGGTTCTAACCTGTTGCCT (site GGATAGCCTAG) | 0.157
AGATAGCCTTGGGTTCTAACCTGTTGCCT (site TGATAGCCTAG) | 0.206
AGATCCACTTGGGTTCTAACCTGTTGCCT (site AGATCCACTAG) | 0.832
AGATCCACTTGGGTTCTAACCTGTTGCCT (site CGATCCACTAG) | 0.0967
AGATCCACTTGGGTTCTAACCTGTTGCCT (site GGATCCACTAG) | 0.0847
AGATCCACTTGGGTTCTAACCTGTTGCCT (site TGATCCACTAG) | 0.0724
AGATGGACTTGGGTTCTAACCTGTTGCAG (site AGATGGACTCT) | 2.52
AGATGGACTTGGGTTCTAACCTGTTGCAG (site AGATGGCCTAT) | 0.0344
AGATTCGCTTGGGTTCTAACCTGTTGCCG (site AGATTCCCTCG) | 0.0487
AGATTCGCTTGGGTTCTAACCTGTTGCCG (site AGATTCGCTCG) | 0.941
AGATTTACTTGGGTTCTAACCTGTTGCCT (site AAACTTACTAG) | 1.28
AGATTTACTTGGGTTCTAACCTGTTGCCT (site AGATTTACTAG) | 0.143
AGCACGACTTGGGTTCTAACCTGTTGCTG (site AGCACGACTCA) | 0.684

Sequence | recombinant barcode read abundance (log10)
AGCACGACTTGGGTTCTAACCTGTTGCTG (site AGCAGGACTCG) | 0.157
AGCAGAGCTTGGGTTCTAACCTGTTGCTG (site AGCAGAGCTCA) | 1.39
AGCAGAGCTTGGGTTCTAACCTGTTGCTG (site AGCAGAGCTCC) | 1.94
AGCAGAGCTTGGGTTCTAACCTGTTGCTG (site AGCAGAGCTCG) | 0.133
AGCAGAGCTTGGGTTCTAACCTGTTGCTG (site AGCAGAGCTCT) | 0.93
AGCATCACTTGGGTTCTAACCTGTTGCCT (site AACATCACTCG) | 0.135
AGCATCACTTGGGTTCTAACCTGTTGCCT (site AGCATCACTAG) | 0.499
AGCATTGCTTGGGTTCTAACCTGTTGCCT (site AGCATTGCTAG) | 0.235
AGCATTGCTTGGGTTCTAACCTGTTGCCT (site AGCCTTGCTAG) | 0.629
AGCATTGCTTGGGTTCTAACCTGTTGCCT (site AGCGTTGCTAG) | 0.724
AGCATTGCTTGGGTTCTAACCTGTTGCCT (site AGCTTTGCTAG) | 0.0996
AGCCACCCTTGGGTTCTAACCTGTTGCCT (site AGCCACACTAG) | 0.201
AGCCACCCTTGGGTTCTAACCTGTTGCCT (site AGCCACCCTAG) | 0.425
AGCCACCCTTGGGTTCTAACCTGTTGCCT (site AGCCACGCTAG) | 0.265
AGCCACCCTTGGGTTCTAACCTGTTGCCT (site AGCCACTCTAG) | 0.522
AGCCGCCCTTGGGTTCTAACCTGTTGCAT (site AGCCGCCCTAT) | 0.172
AGCCGCCCTTGGGTTCTAACCTGTTGCAT (site CGCCGCCCTAG) | 0.119
AGCCGTACTTGGGTTCTAACCTGTTGCCT (site AGACGTACTAG) | 0.129
AGCCGTACTTGGGTTCTAACCTGTTGCCT (site AGCCGTACTAG) | 0.341

From the supplement of paper PMC11208160
